Experimental data published in US9180160B2, “Complement inhibitors for treatment of injury from intracerebral hemorrhage” (The Trustees of the University of Pennsylvania, priority 2008, dated 2015).
Entries after “also recorded” stand apart in the source; their conditions may differ.

What was measured:
[1] = tested on: C57BL/6J mice subjected to ICH; assay: 28-point neurological function score after ICH (autologous blood infusion); format: in vivo
Procedure: (§1) Animal Preparation and Intracerebral Infusion. Adult male C57BL/6J mice weighing 23-30 g were used. Mice were randomized to receive intraperitoneal injection of either C3aRA (1 mg/kg) (SB290157, Calbiochem, Darmstadt, Germany) diluted in PBS and DMSO (1.16% v/v), or an equal volume of vehicle (PBS and DMSO, 1.16% DMSO v/v) either 45 minutes prior to ICH induction or 6 and 12 hours after induction of ICH, followed in both cohorts by twice daily doses for 72 hours. […] Sham animals were given PBS and DMSO (1.16% v/v) in the same manner.
Mice were anesthetized with a single intraperitoneal dose of ketamine (90 mg/kg) and xylazine (5 mg/kg). Next, the mice were placed in a stereotactic frame (ASI Instruments, Inc., Warren, Mich., USA) and subjected to ICH using autologous blood infusion as previously described (Rynkowski M A et al, 2008, Nat Protoc 3: 122-128), Briefly, a 1-mm burr hole was drilled 2.3 mm lateral to the midline and 0.2 mm anterior to the bregma. Thirty μL of autologous whole blood were drawn from the tail artery into a capillary tube. A 30-gauge needle was then advanced stereotactically through the burr hole into the right striatum (coordinates: 0.2 mm anterior, 2.3 mm lateral to the bregma, 3.5 mm ventral). Using a microinfusion pump (KDS220, KD Scientific Inc., Holliston, Mass., USA), 5 μL was delivered at a rate of 1.5 μL per minute. After a 7-minute period, an additional 25 μL was delivered at a constant rate of 1.5 μL per minute. […]
Neurofunction and behavioral testing. Sensorimotor function was evaluated by means of the 28-point neurological function score, corner test and forelimb placing tests, which were performed pre-operatively and at 6, 24, 48 and 72 hour post-injury. Navigational memory was evaluated with the means of a Morris water-maze (MWM) test pre-operatively and at 72 hours post ICH. […]
Neurological function. Acute neurological deficits were assessed using a 28-point scoring system including body symmetry, gait, climbing, circling behavior, front limb symmetry, compulsory circling and whisker response. […]

[2] = tested on: C57BL/6J mice subjected to ICH; assay: Flow cytometric analysis of granulocyte infiltration and microglial activation after ICH; format: in vivo; details: then twice daily, mean±SEM
Procedure: as §1
Mice were anesthetized with a single intraperitoneal dose of ketamine (90 mg/kg) and xylazine (5 mg/kg). Next, the mice were placed in a stereotactic frame (ASI Instruments, Inc., Warren, Mich., USA) and subjected to ICH using autologous blood infusion as previously described (Rynkowski M A et al, 2008, Nat Protoc 3: 122-128), Briefly, a 1-mm burr hole was drilled 2.3 mm lateral to the midline and 0.2 mm anterior to the bregma. Thirty μL of autologous whole blood were drawn from the tail artery into a capillary tube. A 30-gauge needle was then advanced stereotactically through the burr hole into the right striatum (coordinates: 0.2 mm anterior, 2.3 mm lateral to the bregma, 3.5 mm ventral). Using a microinfusion pump (KDS220, KD Scientific Inc., Holliston, Mass., USA), 5 μL was delivered at a rate of 1.5 μL per minute. After a 7-minute period, an additional 25 μL was delivered at a constant rate of 1.5 μL per minute. After a period of 10 minutes, the needle was slowly removed, the burr hole was occluded with bone wax and the skin incision was closed with Nexaband® (Abbott Laboratories, North Chicago, Ill.). Sham animals received only needle insertion. […]
Preparation of brains. Both cerebral hemispheres were analyzed for inflammatory cells using flow cytometry. […]
Flow cytometric analysis. […] Flow cytometric analysis was carried out using a FACSCalibur (BD Biosciences, Franklin Lakes, N.J., USA), and the data were analyzed using FlowJo software (Tree Star, Ashland, Oreg., USA). […]

[3] = 1 mg/kg i.p. first at 6 h and 12 h after ICH, then twice daily for 72 hours, versus vehicle
[4] = 1 mg/kg i.p. 45 minutes prior to ICH, 72 hours after ICH

Compound	28-point neurological score ([1]; 1 mg/kg i.p. 45 minutes prior to ICH, then twice daily, 72 hours after ICH)	28-point neurological score [1, 3]	activated microglia, hemorrhagic/non-hemorrhagic hemisphere ratio [2, 4]	granulocytes, hemorrhagic/non-hemorrhagic hemisphere ratio [2, 4]	granulocyte infiltration, hemorrhagic/non-hemorrhagic ratio ([2]; 1 mg/kg i.p. first at 6 h and 12 h after ICH, 3 days after ICH)
NC(N)=NCCC[C@H](NC(=O)COCC(c1ccccc1)c1ccccc1)C(=O)O [C3aRA]	no significant deficits compared with sham animals	significant improvement at 24, 48, and 72 hours; also recorded: significant improvement at 24, 48 and 72 hours	3.67±0.45	3.21±0.52	–
Acetyl-Phe-[Orn-Pro-D-cyclohexylalanine-Trp-Arg] [C5aRA]	–	significant improvement at 24, 48 and 72 hours	–	–	1.7793±0.36
